Values belong to the molecule of their own block, whether it stands above or below them.
What was measured:
BCRP [1] = molecular target: T1, BCRP (Homo sapiens, UniProt Q9UNQ0); settings: not told; cited from earlier work
T1 sequence (Q9UNQ0 1-655): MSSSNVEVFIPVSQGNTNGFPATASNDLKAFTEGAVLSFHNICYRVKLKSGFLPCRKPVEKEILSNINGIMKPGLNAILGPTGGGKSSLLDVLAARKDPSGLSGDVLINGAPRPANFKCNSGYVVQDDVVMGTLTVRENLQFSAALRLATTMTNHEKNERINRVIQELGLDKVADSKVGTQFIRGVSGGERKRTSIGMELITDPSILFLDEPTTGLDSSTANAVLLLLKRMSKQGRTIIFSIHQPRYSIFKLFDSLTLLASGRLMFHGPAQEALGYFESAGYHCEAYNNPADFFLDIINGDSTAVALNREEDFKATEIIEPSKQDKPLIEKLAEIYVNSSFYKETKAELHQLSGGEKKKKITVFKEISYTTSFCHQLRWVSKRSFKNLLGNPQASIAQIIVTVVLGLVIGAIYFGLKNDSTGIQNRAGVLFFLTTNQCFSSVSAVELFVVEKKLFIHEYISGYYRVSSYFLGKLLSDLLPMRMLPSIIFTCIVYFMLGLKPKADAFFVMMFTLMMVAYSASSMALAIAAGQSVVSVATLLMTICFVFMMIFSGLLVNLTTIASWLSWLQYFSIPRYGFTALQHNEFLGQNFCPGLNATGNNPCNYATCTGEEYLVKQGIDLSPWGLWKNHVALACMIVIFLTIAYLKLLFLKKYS

MDCKII-WT cells = assay: Uptake of AZT in MDCKII-WT cells; type: in vitro ADME, canine; settings: wild-type MDCKII cells, AZT 1 μM, 120 min
brain BCRP = molecular target: T2, brain BCRP (Rattus norvegicus, UniProt Q80W57); settings: normal rats
T2 sequence (Q80W57 1-657): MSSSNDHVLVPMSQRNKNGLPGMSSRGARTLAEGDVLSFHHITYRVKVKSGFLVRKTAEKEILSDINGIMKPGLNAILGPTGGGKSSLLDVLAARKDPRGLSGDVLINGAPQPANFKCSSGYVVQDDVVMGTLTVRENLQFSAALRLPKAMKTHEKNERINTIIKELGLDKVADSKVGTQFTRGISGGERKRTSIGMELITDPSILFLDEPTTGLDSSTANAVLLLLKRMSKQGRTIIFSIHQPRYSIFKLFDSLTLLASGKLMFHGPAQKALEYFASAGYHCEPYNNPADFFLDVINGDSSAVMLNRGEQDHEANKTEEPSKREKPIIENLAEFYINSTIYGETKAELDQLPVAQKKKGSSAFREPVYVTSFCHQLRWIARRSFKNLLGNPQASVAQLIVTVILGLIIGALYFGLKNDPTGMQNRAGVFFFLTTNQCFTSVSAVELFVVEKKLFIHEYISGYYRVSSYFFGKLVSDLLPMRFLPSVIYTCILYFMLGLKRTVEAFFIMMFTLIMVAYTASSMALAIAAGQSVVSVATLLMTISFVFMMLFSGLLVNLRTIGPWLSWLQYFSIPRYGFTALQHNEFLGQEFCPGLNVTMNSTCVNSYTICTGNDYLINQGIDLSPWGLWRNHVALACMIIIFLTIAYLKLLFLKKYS

SO and BDL rats = assay: Y-maze test during AZT treatment; type: in vivo, rat
BCRP [2] = molecular target: T1, BCRP; settings: AZT 1 μM, 120 min
[3] = cited from earlier work
BCRP [4] = molecular target: BCRP (Homo sapiens, UniProt Q9UNQ0); settings: HCMEC/D3 cells, siRNA for human ABCG2 vs CON

Molecule: CC(C)(C)NC(=O)[C@@H]1C[C@@H]2CCCC[C@@H]2CN1C[C@@H](O)[C@H](Cc1ccccc1)NC(=O)[C@H](CC(N)=O)NC(=O)c1ccc2ccccc2n1 [saquinavir]
- efflux by BCRP (BCRP [1]): BCRP also mediates the efflux

Molecule: Ko143
- effect of incubation with Ko143 on uptake of AZT (MDCKII-WT cells): did not affect
- effect of coadministration of Ko143 on influx of AZT into the hippocampus (brain BCRP): markedly increased

- increase in Kin of AZT with novobiocin (brain BCRP; cortex, AZT 25 μM + novobiocin 200 μM, 2 min perfusion): not significant
Molecule: CO[C@@H]1[C@@H](OC(N)=O)[C@@H](O)[C@H](Oc2ccc3c(O)c(NC(=O)c4ccc(O)c(CC=C(C)C)c4)c(=O)oc3c2C)OC1(C)C [novobiocin]

- Y-maze percentage of alternation of arm entrance (SO and BDL rats; BDL rats treated with AZT 100 mg/kg every day i.v. compared with SO rats): significantly decreased
- impairment of cognitive function by AZT (SO and BDL rats; SO rats, AZT 100 mg/kg every day i.v., Y-maze and shuttle box): did not occur
- uptake of AZT in MDCKII-BCRP cells, % of that in MDCKII-WT cells (BCRP [2]): approximately 50.0%
- uptake of AZT after BCRP siRNA knockdown (BCRP [4]): significantly increased
Molecule: Cc1cn([C@H]2C[C@H](N=[N+]=[N-])[C@@H](CO)O2)c(=O)[nH]c1=O [AZT, Zidovudine]
- Y-maze total number of entries, effect of AZT treatment (SO and BDL rats; BDL rats, AZT 100 mg/kg every day i.v., day 5 of treatment): further enhanced by AZT treatment, but the difference was not significant
- plasma protein binding [3]: 10%
